Laboratory results reported in ChEMBL document CHEMBL3616468, “Spirooxindole-derived morpholine-fused-1,2,3-triazoles: Design, synthesis, cytotoxicity and apoptosis inducing studies” (Eur J Med Chem, 2015).
Active and inactive are the calls of the source. No cut-off for these calls is given here.

Legend:
[1] = tested on: DU-145; test: Antiproliferative activity against human DU145 cells after 48 hrs by MTT assay; format: functional, cell-based; details: DU-145, 48 h
[2] = tested on: A549; test: Antiproliferative activity against human A549 cells after 48 hrs by MTT assay; format: functional, cell-based; details: A549, 48 h
[3] = tested on: MCF7; test: Antiproliferative activity against human MCF7 cells after 48 hrs by MTT assay; format: functional, cell-based; details: MCF7, 48 h
[4] = tested on: HeLa; test: Antiproliferative activity against human HeLa cells after 48 hrs by MTT assay; format: functional, cell-based
[5] = tested on: A549; test: Induction of apoptosis in human A549 cells assessed as disruption of mitochondrial membrane potential at cytotoxic IC50 level after 24 hrs by rhodamine-123 staining based spectrofluorometry relative to control; format: functional
[6] = tested on: A549; test: Induction of apoptosis in human A549 cells assessed as chromatin condensation at cytotoxic IC50 level after 24 hrs by […] staining based confocal fluorescence microscopic analysis; format: functional, cell-based
[7] = tested on: A549; test: Inhibition of cell migration in human A549 cells at cytotoxic IC50 level after 24 to 48 hrs by wound healing assay; format: functional
[8] = tested on: A549; test: Induction of morphological change in human A549 cells assessed as cell detachment at cytotoxic IC50 level after 48 hrs by phase contrast microscopic analysis; format: functional, cell-based
[9] = tested on: A549; test: Induction of apoptosis in human A549 cells assessed as extremely condensed chromatin at 2 uM after 24 hrs by acridine orange/ethidium bromide staining based fluorescence microscopic analysis; format: functional, cell-based
[10] = tested on: A549; test: Induction of cell cycle arrest in human A549 cells assessed as accumulation at S phase at 2 uM after 24 hrs by propidium iodide staining based flow cytometry (reference value: 4.96%); format: functional
[11] = tested on: A549; test: Inhibition of cell migration in human A549 cells at cytotoxic IC50 level after 48 hrs by wound healing assay; format: functional
[12] = tested on: A549; test: Induction of apoptosis in human A549 cells assessed as extremely condensed chromatin at 0.5 uM after 24 hrs by acridine orange/ethidium bromide staining based fluorescence microscopic analysis; format: functional, cell-based
[13] = tested on: A549; test: Induction of cell cycle arrest in human A549 cells assessed as accumulation at G2/M phase at 2 uM after 24 hrs by propidium iodide staining based flow cytometry (reference value: 21.85%); format: functional
[14] = tested on: A549; test: Induction of morphological change in human A549 cells assessed as nucleus shrinkage at cytotoxic IC50 level after 48 hrs by phase contrast microscopic analysis; format: functional, cell-based
[15] = tested on: A549; test: Induction of cell cycle arrest in human A549 cells assessed as accumulation at G2/M phase at 1 uM after 24 hrs by propidium iodide staining based flow cytometry (reference value: 21.85%); format: functional
[16] = tested on: A549; test: Induction of cell cycle arrest in human A549 cells assessed as accumulation at G1 phase at 1 uM after 24 hrs by propidium iodide staining based flow cytometry (reference value: 72.27%); format: functional
[17] = tested on: A549; test: Induction of apoptosis in human A549 cells assessed as increase in intracellular reactive oxygen species level at cytotoxic IC50 level after 24 hrs by DCFH-DA staining based spectrofluorometry relative to control; format: functional
[18] = tested on: A549; test: Induction of cell cycle arrest in human A549 cells assessed as accumulation at S phase at 1 uM after 24 hrs by propidium iodide staining based flow cytometry (reference value: 4.96%); format: functional
[19] = tested on: A549; test: Anticancer activity against human A549 cells assessed as decrease in viable cells at cytotoxic IC50 level after 48 hrs by phase contrast microscopic analysis; format: functional, cell-based
[20] = tested on: A549; test: Induction of cell cycle arrest in human A549 cells assessed as accumulation at G1 phase at 2 uM after 24 hrs by propidium iodide staining based flow cytometry (reference value: 72.27%); format: functional
[21] = tested on: A549; test: Induction of apoptosis in human A549 cells assessed as destructive fragmentation of nuclei at 1 uM after 24 hrs by acridine orange/ethidium bromide staining based fluorescence microscopic analysis; format: functional, cell-based
[22] = tested on: A549; test: Inhibition of cell migration in human A549 cells at cytotoxic IC50 level after 24 hrs by wound healing assay; format: functional
[23] = tested on: A549; test: Induction of apoptosis in human A549 cells assessed as fragmented nuclei at cytotoxic IC50 level after 24 hrs by […] staining based confocal fluorescence microscopic analysis; format: functional, cell-based
[24] = tested on: A549; test: Induction of apoptosis in human A549 cells assessed as irregular distribution of chromatin at 1 uM after 24 hrs by acridine orange/ethidium bromide staining based fluorescence microscopic analysis; format: functional, cell-based
[25] = tested on: A549; test: Induction of apoptosis in human A549 cells assessed as horseshoe shaped nuclei at cytotoxic IC50 level after 24 hrs by […] staining based confocal fluorescence microscopic analysis; format: functional, cell-based
[26] = tested on: A549; test: Induction of apoptosis in human A549 cells assessed as cell membrane blebbing at 0.5 uM after 24 hrs by acridine orange/ethidium bromide staining based fluorescence microscopic analysis; format: functional

## CN1C(=O)C2(Cn3nncc3CO2)c2ccccc21 (configuration not stated)
[1]
  IC50: > 50 µM
[2]
  IC50: 20.1 µM
[3]
  IC50: 27.7 µM
[4]
  IC50: 48 µM

## O=C1N(Cc2ccc(Br)cc2)c2ccc(Cl)cc2C12Cn1nncc1CO2 (configuration not stated)
[1]
  IC50: > 50 µM
[2]
  IC50: 23.4 µM
[3]
  IC50: 31.6 µM
[4]
  IC50: > 50 µM

## CN1C(=O)C2(Cn3nncc3CO2)c2cc(Cl)ccc21 (configuration not stated)
[1]
  IC50: > 50 µM
[2]
  IC50: > 50 µM
[3]
  IC50: 35.5 µM
[4]
  IC50: > 50 µM

## Cc1ccc2c(c1)C1(Cn3nncc3CO1)C(=O)N2Cc1ccccc1 (configuration not stated)
[1]
  IC50: 19.7 µM
[2]
  IC50: 14.5 µM
[3]
  IC50: 19.9 µM
[4]
  IC50: 18.2 µM

## O=C1N(Cc2ccccc2)c2ccccc2C12Cn1nncc1CO2 (configuration not stated)
[1]
  IC50: > 50 µM
[2]
  IC50: 10.5 µM
[3]
  IC50: 17.8 µM
[4]
  IC50: > 50 µM

## O=C1N(Cc2ccc(Br)cc2)c2ccccc2C12Cn1nncc1CO2 (configuration not stated)
[1]
  IC50: 26.3 µM
[2]
  IC50: 14.5 µM
[3]
  IC50: 13.5 µM
[4]
  IC50: 15.5 µM

## CCN1C(=O)C2(Cn3nncc3CO2)c2ccccc21 (configuration not stated)
[5]
  Activity: 48.2%
[6]
  Activity: Active
[1]
  IC50: 19.9 µM
[7]
  inhibition (INH): 38.1%
[8]
  Activity: Active
[9]
  Activity: Active
[10]
  Activity: 16.2%
[11]
  inhibition (INH): 56.1%
[12]
  Activity: Active
[13]
  Activity: 35.61%
[14]
  Activity: Active
[15]
  Activity: 19.77%
[16]
  Activity: 60.21%
[2]
  IC50: 1.87 µM
[3]
  IC50: 8.87 µM
[17]
  fold change (FC): 2.6
[18]
  Activity: 15.63%
[19]
  Activity: Active
[20]
  Activity: 46.04%
[21]
  Activity: Active
[22]
  inhibition (INH): 54.9%
[23]
  Activity: Active
[4]
  IC50: 11.2 µM
[24]
  Activity: Active
[25]
  Activity: Active
[26]
  Activity: Active

## COc1cccc2c1C(=O)c1c(O)c3c(c(O)c1C2=O)C[C@@](O)(C(=O)CO)C[C@@H]3O[C@H]1C[C@H](N)[C@H](O)[C@H](C)O1 [DOXORUBICIN]
[1]
  IC50: 1.91 µM
[3]
  IC50: 1.05 µM
[4]
  IC50: 1.26 µM

## O=C1N(Cc2ccc(Br)cc2)c2ccc(Br)cc2C12Cn1nncc1CO2 (configuration not stated)
[5]
  Activity: Active
[6]
  Activity: Active
[1]
  IC50: 8.14 µM
[7]
  inhibition (INH): 38.1%
[8]
  Activity: Active
[14]
  Activity: Active
[2]
  IC50: 4.26 µM
[3]
  IC50: 6.29 µM
[17]
  fold change (FC): 2.3
[19]
  Activity: Active
[23]
  Activity: Active
[4]
  IC50: 12 µM
[25]
  Activity: Active

## CCN1C(=O)C2(Cn3nncc3CO2)c2cc(Br)ccc21 (configuration not stated)
[1]
  IC50: > 50 µM
[2]
  IC50: > 50 µM
[3]
  IC50: > 50 µM
[4]
  IC50: > 50 µM

## N#Cc1ccc(CN2C(=O)C3(Cn4nncc4CO3)c3ccccc32)cc1 (configuration not stated)
[1]
  IC50: 20.4 µM
[2]
  IC50: 12.6 µM
[3]
  IC50: 17.2 µM
[4]
  IC50: 21.4 µM

## CN1C(=O)C2(Cn3nncc3CO2)c2cc(F)ccc21 (configuration not stated)
[1]
  IC50: > 50 µM
[2]
  IC50: > 50 µM
[3]
  IC50: > 50 µM
[4]
  IC50: > 50 µM

## O=C1N(Cc2ccc(Br)cc2)c2ccc(F)cc2C12Cn1nncc1CO2 (configuration not stated)
[1]
  IC50: 37.1 µM
[2]
  IC50: 4.36 µM
[3]
  IC50: 8.31 µM
[4]
  IC50: 14.6 µM

## O=c1[nH]cc(F)c(=O)[nH]1 [FLUOROURACIL]
[1]
  IC50: 6.07 µM
[2]
  IC50: 7.24 µM
[4]
  IC50: 8.32 µM

## O=C1N(Cc2ccccc2)c2ccc(Cl)cc2C12Cn1nncc1CO2 (configuration not stated)
[1]
  IC50: 33.3 µM
[2]
  IC50: 12.9 µM
[3]
  IC50: 16.5 µM
[4]
  IC50: 15.1 µM

## O=C1N(Cc2ccccc2)c2ccc(Br)cc2C12Cn1nncc1CO2 (configuration not stated)
[1]
  IC50: 49 µM
[2]
  IC50: 14.8 µM
[3]
  IC50: 29.5 µM
[4]
  IC50: 31.5 µM

## O=C1N(Cc2ccccc2)c2ccc(F)cc2C12Cn1nncc1CO2 (configuration not stated)
[1]
  IC50: 27.5 µM
[2]
  IC50: 19.9 µM
[3]
  IC50: 35.9 µM
[4]
  IC50: > 50 µM

## N#Cc1ccc(CN2C(=O)C3(Cn4nncc4CO3)c3cc(Cl)ccc32)cc1 (configuration not stated)
[1]
  IC50: 28 µM
[2]
  IC50: 7.94 µM
[3]
  IC50: 10.2 µM
[4]
  IC50: 22.3 µM

## CCN1C(=O)C2(Cn3nncc3CO2)c2cc(Cl)ccc21 (configuration not stated)
[1]
  IC50: 23.4 µM
[2]
  IC50: 15.8 µM
[3]
  IC50: 28.8 µM
[4]
  IC50: > 50 µM

## Cc1ccc2c(c1)C1(Cn3nncc3CO1)C(=O)N2C (configuration not stated)
[1]
  IC50: 24 µM
[2]
  IC50: 7.41 µM
[3]
  IC50: 9.66 µM
[4]
  IC50: 10.2 µM

## CCN1C(=O)C2(Cn3nncc3CO2)c2cc(F)ccc21 (configuration not stated)
[1]
  IC50: > 50 µM
[2]
  IC50: > 50 µM
[3]
  IC50: > 50 µM
[4]
  IC50: > 50 µM

## CN1C(=O)C2(Cn3nncc3CO2)c2cc(Br)ccc21 (configuration not stated)
[1]
  IC50: > 50 µM
[2]
  IC50: > 50 µM
[3]
  IC50: > 50 µM
[4]
  IC50: > 50 µM
